Measurements published in patent US12533411B2, “Compositions comprising anti-CD38 antibodies and carfilzomib” (Sanofi-Aventis U.S. LLC, priority 2013, dated 2026).
“Also recorded” adds a separate entry of the source.

Key:
[1] = tested on: NCI-H929 multiple myeloma model; experiment: NCI-H929 subcutaneous multiple myeloma xenograft mouse model (Example 1); assay type: in vivo, Balb/c Scid mice; conditions: carfilzomib 2 mg/kg 2×/wk × 3 wk IV; for Activity: D69, hu38SB19 0.5 mg/kg 2×/wk × 2 wk IV
Text: The subcutaneous multiple myeloma (MM) xenograft mouse models were established using NCI-H929 or RPMI-8226 cell lines. Specifically, 5-6 week old female Balb/c Scid mice were obtained from Jackson Lab. Mice were housed for 7-10 days prior to implantation. Mice were housed in a dedicated room in the UCSF Mt Zion Animal Barrier Facility. NCI-H929 and RPMI-8226 cells were obtained from the German Collection of Microorganisms and Cell Cultures, DSMZ, (Deutsche Sammlung von Mikroorganismen and Zellkulturen), and grown in sterile suspension culture in T225 flasks as follows: NCI-H929: RPMI1640+20% FBS+4 mM L−glutamine+1 mM sodium pyruvate+50 μM mercaptoethanol. RPMI-8226: RPMI1640+10% FBS+4 mM L-glutamine. At the time of implantation, mice were shaved on the right flank and shoulder region and anesthetized with ip avertin. MM cells suspended in serum free RPMI 1640 media diluted 1:1 with Matrigel (BD) at a concentration of 1×10^8 cells per ml were injected sc into the right flank in 100 μL volume (1×10^7 cells) using a 1 ml syringe and 25 g needle. Mice were monitored twice weekly for the appearance of tumors and once tumors were visible, measurements were collected twice weekly for body weight and tumor volume. Electronic balance and calipers were used and data was collected directly into a study management program (Study Director). When the mean tumor volume reached about 150-200 mm^3, the mice were distributed into treatment groups of 8-10 mice per groups and dosing was begun. […] Dose levels for use in combination studies are as follows: Data were collected using electronic balance and calipers using a study management application called StudyLog (Study Director). […] Antitumor activity was determined according to NCI standards based on the ratio of the median tumor volume change of the treated/median tumor volume change of the control×100 (% ΔT/ΔC). Low numerical values for ΔT/ΔC describe stronger anti-tumor activity. Anti-tumor activity is defined as T/C≤40% at minimum. ΔT/ΔC<10% is considered high anti-tumor activity.

[2] = tested on: RPMI-8226 xenograft models; experiment: RPMI-8226 subcutaneous multiple myeloma xenograft mouse model (Example 1); assay type: in vivo, Balb/c Scid mice; conditions: Day 41, carfilzomib 3 mg/kg qd×2 every wk×3 wk, hu38SB19 3 mg/kg BIW×2 wk
Text: The subcutaneous multiple myeloma (MM) xenograft mouse models were established using NCI-H929 or RPMI-8226 cell lines. Specifically, 5-6 week old female Balb/c Scid mice were obtained from Jackson Lab. Mice were housed for 7-10 days prior to implantation. Mice were housed in a dedicated room in the UCSF Mt Zion Animal Barrier Facility. NCI-H929 and RPMI-8226 cells were obtained from the German Collection of Microorganisms and Cell Cultures, DSMZ, (Deutsche Sammlung von Mikroorganismen and Zellkulturen), and grown in sterile suspension culture in T225 flasks as follows: NCI-H929: RPMI1640+20% FBS+4 mM L−glutamine+1 mM sodium pyruvate+50 μM mercaptoethanol. RPMI-8226: RPMI1640+10% FBS+4 mM L-glutamine.
At the time of implantation, mice were shaved on the right flank and shoulder region and anesthetized with ip avertin. MM cells suspended in serum free RPMI 1640 media diluted 1:1 with Matrigel (BD) at a concentration of 1×10^8 cells per ml were injected sc into the right flank in 100 μL volume (1×10^7 cells) using a 1 ml syringe and 25 g needle. Mice were monitored twice weekly for the appearance of tumors and once tumors were visible, measurements were collected twice weekly for body weight and tumor volume. Electronic balance and calipers were used and data was collected directly into a study management program (Study Director). […]

NCI-H929 xenografts = experiment: NCI-H929 hind-flank xenograft tumor growth (Example 3, FIGS. 12-13); assay type: in vivo, Balb/c Scid mice; conditions: for tumor growth inhibition, single agent: single-agent administration, NCI-H929 hind-flank model (FIG. 12)
Description: Carfilzomib (PR-171) was obtained from Chemie Tek (CT-CARP 98). Carfilzomib was formulated in an aqueous solution of 10% (w/v) sulfobutylether-h-cyclodextrin (Cydex) and 10 mmol/L sodium citrate (pH 3.5), 2 mg/ml stock prepared and frozen at −80° C., diluted daily with vehicle before injection. Carfilzomib was administered weekly qd×2×3 wk (iv).
Test Animals: 5-6 week old female Balb/c Scid mice were obtained from Jackson Lab. Mice were housed for 7-10 days prior to implantation of multiple myeloma (MM) cell lines. Mice were housed in a dedicated room in the UCSF Mt. Zion Animal Barrier Facility.
Xenograft Model: At the time of implantation, mice were shaved on the right flank and shoulder. MM cells were suspended in serum free RPMI 1640 media diluted 1:1 with Matrigel (BD) at a concentration of 1×10^8 cells per ml were injected sc into the right flank in 100 ul volume (1×10^7 cells) using a 1 ml syringe and 25 g needle. Mice were monitored twice weekly for the appearance of tumors and once tumors were visible, measurements were collected twice weekly for body weight and tumor volume. Electronic balance and calipers were used and data was collected directly into a study management program (Study Director). When the mean tumor volume reached approximately 150-200 mm^3, mice were distributed into treatment groups of 8-10 mice per group and dosing was initiated.

tumor cells [3] = conditions: reported in the literature; cited from earlier work
tumor cells [4] = experiment: Direct pro-apoptotic activity on tumor cells without cross-linking; assay type: cell-based; conditions: preclinical studies

| Molecule | Activity [1] | Activity ([1]; listed as carfilzomib) | % ΔT/ΔC (D69) ([1]; hu38SB19 0.5 mg/kg 2×/wk × 2 wk IV) | complete regressions [2] | tumor growth inhibition, single agent (NCI-H929 xenografts) | induction of apoptosis (tumor cells [3]) | elimination of palpable tumors (NCI-H929 xenografts; hu38SB19 as sole active ingredient, four cumulative doses twice weekly at 3 mg/kg (FIG. 12)) | direct pro-apoptotic activity (tumor cells [4]) |
| --- | --- | --- | --- | --- | --- | --- | --- | --- |
| CC(C)C[C@H](NC(=O)[C@H](CCc1ccccc1)NC(=O)CN1CCOCC1)C(=O)N[C@@H](Cc1ccccc1)C(=O)N[C@@H](CC(C)C)C(=O)[C@@]1(C)CO1 [Carfilzomib, (S)-4-Methyl-N-((S)-1-(((S)-4-methyl-1-((R)-2-methyloxiran-2-yl)-1-oxopentan-2-yl)amino)-1-oxo-3-phenylpropan-2-yl)-2-((S)-2-(2-morpholinoacetamido)-4-phenylbutanamido)pentanamide] | Inactive | inactive | 68% | 0/10 | not robustly sensitive to single-agent therapy | – | – | – |
| Daratumumab: CD38 antibody reported to induce apoptosis only after cross-linking with a secondary antibody | – | – | – | – | – | able to induce apoptosis only after cross-linking with a secondary antibody | – | – |
| hu38SB19: humanized anti-CD38 antibody; VH SEQ ID NO: 66, VL SEQ ID NO: 62 or 64; humanized version of 38SB19 | Inactive | – | – | 2/10 | dose-dependent inhibition of tumor growth; also recorded: dose-dependent anti-tumor effects | – | eliminate palpable tumors in all mice | potent direct pro-apoptotic activity |
